We go through four compounds from patent US20260327570A1, “METHOD FOR PRODUCING ORGANOIDS” (Chungnam National University Hospital, priority 2022, published 2026).

This test has as its system lung cancer organoids from lung cancer tissue exhibiting EGFR mutations. Kind of test: Drug sensitivity test of lung cancer organoids (CellTiter-Glo 3D cell viability; calcein-AM staining). In kind it is cell-based, human. The conditions noted are these: for AUC (area under the curve) / pIC50: EGFR-mutant lung cancer organoids, six concentrations, drug treatment for 3 days, viability on day 6; for pIC50: Homo sapiens; for sensitivity of lung cancer organoids from EGFR-mutant lung cancer patients: result in words, EGFR-TKIs vs ALK inhibitors, consistent with the clinical response of EGFR-mutant patients. The method, then: The experimental overview is conceptually illustrated in FIG. 12.
The organoids were harvested and mixed with Matrigel (Corning Life Sciences, USA, catalog #354263) and seeded onto pillar plates at 5×10^5 cells/mL. Next, the Matrigel-cell mixture (1.5 μL) was spotted onto the coated pillar plates using a pre-cooled ASFA spotter (Medical & Bio Decision, Suwon, Republic of Korea) and incubated in an inverted position at 4 °C for 15 minutes to allow cells to aggregate at the bottom of the spots. The plates were then placed in humidity chamber at 37 °C to allow the spot to gel. Subsequently, the plates were combined with well plates containing fresh medium. After 3 days, cells were treated with EGFR or ALK targeting agents at six concentrations using the ASFA spotter. Cell viability was measured by staining with 0.5 μM calcein-AM at 37 °C for 1 hour, followed by two PBS washes for 20 minutes. The organoid spots were scanned using an automated optical fluorescence scanner (ASFA scanner, Medical & Bio Decision, Korea) The scanner's microscope automatically focused on cell spots by moving in the z-direction, capturing 384 individual images at 4× magnification from one stained pillar/well plate. The images were then integrated into a single JPEG image for data analysis. The scanned images were analyzed using CellAnalyzer version 2.0 (Medical & Bio Decision). After scanning the cells, the organoid spots were transferred to new 384-well plates containing CellTiter-Glo 3D reagent to measure intracellular ATP levels via luminescence activity.
In brief, a total of 5000 single cells per pillar of the plate were seeded in 1.5 μL medium and cultured for 3 days. Subsequently, various EGFR-TKIs and ALK inhibitors were administered at multiple doses for 3 days to determine IC50 and AUC (area under the curve). On day 6, organoid viability was confirmed using fluorescent dye Calcein-AM (see FIG. 13), and survival rates for each drug were measured using CellTiter-Glo 3D cell viability assay (G9681; Promega) (see FIG. 14).

The structures appear in SMILES notation. pIC50: −log10 of the molar value. Bounds are passed on as bounds.

Broadly, the pIC50 is the IC50 on a negative log10 scale, so that one unit is a factor of ten.

In the case of `CN(C)C/C=C/C(=O)Nc1cc2c(Nc3ccc(F)c(Cl)c3)ncnc2cc1O[C@H]1CCOC1` [Afatinib], the “AUC (area under the curve)” value is reported as 125.1, the pIC50 was 6.10 and the “sensitivity of lung cancer organoids from EGFR-mutant lung cancer patients” value is recorded as “showed sensitivity”.
Take `C[C@@H](Oc1cc(-c2cnn(C3CCNCC3)c2)cnc1N)c1c(Cl)ccc(F)c1Cl` [Crizotinib]: the “AUC (area under the curve)” value is given as 177.2 and the negative-log IC50 (pIC50) was 5.15.
With `CCc1cc2c(cc1N1CCC(N3CCOCC3)CC1)C(C)(C)c1[nH]c3cc(C#N)ccc3c1C2=O` [Alectinib], the “AUC (area under the curve)” value is listed as 240.9 and the pIC50 is below 4.30.
In the case of `C=CC(=O)Nc1cc(Nc2nccc(-c3cn(C)c4ccccc34)n2)c(OC)cc1N(C)CCN(C)C` [Osimertinib], the “AUC (area under the curve)” value is 133.9, the pIC50 was 5.74 and the “sensitivity of lung cancer organoids from EGFR-mutant lung cancer patients” value was “showed sensitivity”.
